Data as given in patent US20130203635A1, “NUCLEIC ACID LIGATION METHOD” (priority 2012, published 2013).

T1: Pyrococcus horikoshii Archease
T1 chain: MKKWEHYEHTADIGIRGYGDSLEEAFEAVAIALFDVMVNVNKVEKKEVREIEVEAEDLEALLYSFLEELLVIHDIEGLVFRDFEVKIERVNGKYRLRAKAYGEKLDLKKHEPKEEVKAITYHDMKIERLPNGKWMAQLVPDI


How the values were obtained:
[1] = test system: Escherichia coli RtcB ligase; experiment: E. coli RtcB RNA ligation assay (3′-P and 5′-OH termini, urea-polyacrylamide gel); format: biochemical
Excerpt: FIG. 1. […] (A) RNA ligation substrate that mimics a broken tRNA anti-codon. FAM label allows visualization in a urea-polyacrylamide gel. […] (B) Cofactor- and metal-dependence of ligation. Reactions contain manganese, except in the “—Mn^2+” lane. The lane labeled “C78A” is a ligation reaction performed with RtcB that has a C78A substitution within the predicted metal binding site. (C) Ligation assays using GTP analogues as cofactors. […] (E) RNA termini specificity of RtcB. Modifications to the ligatable ends of the tRNA mimic substrate were made as indicated and tested in ligation reactions.
To assay for ligation, we initially used two single-stranded RNA (ssRNA) oligos that were each 10 nucleotides in length. The 5′ RNA fragment was labeled with 6-carboxyfluorescein (FAM) at its 5′ end and phosphorylated at its 3′ end. The 3′ RNA fragment had hydroxyl groups at each end. We intended to convert the 3′-P into a 2′,3′-cyclic phosphate by incubation with RtcA and ATP, so as to produce a suitable substrate for RtcB.
These reactions were performed with high concentrations of GTP analogues to ensure saturation of RtcB.
We investigated the RNA termini structure requirements for ligation by modifying the ends of our tRNA mimic substrate. First, all four combinations of either a phosphate or hydroxyl group at each termini were sampled while maintaining a 2′-OH on the 5′ side of the ligation junction. […] Next, the importance of the terminal ribose 2′-OH for ligation was probed by replacing this hydroxyl group with either hydrogen (2′-H) or fluorine (2′-F).

[2] = test system: P. horikoshii RtcB; experiment: P. horikoshii RtcB RNA ligation assay; format: biochemical, Pyrococcus horikoshii; details: Archease 0.25 μM, NTP 100 μM, RtcB 5 μM (FIG. 10B, 11B)
Excerpt: FIG. 2. P. horikoshii RtcB catalyzed ligation of 3′-P and 5′-OH RNA termini. P. horikoshii RtcB requires Mn^2+ and GTP for ligation. […] The lane labeled “2′-deoxy” is a ligation reaction using the tRNA mimic substrate but with a 3′-P/2′-H termini on its 5′ fragment. The lane labeled “C98A” is a ligation reaction with RtcB that has a C98A substitution within the predicted metal-binding site.
RtcB from the archaeal domain of life likewise catalyzes the GTP-dependent ligation of 3′-P and 5′-OH RNA termini. The crystal structure of RtcB from a hyperthermophilic archaeon, Pyrococcus horikoshii, was determined as part of a structural genomics project (21). […] The P. horikoshii homologue has 29% amino-acid sequence identity to E. coli RtcB, and 49% identity to the human ligase (HSPC117). To investigate if RtcB from archaea catalyzes the GTP-dependent ligation of 3′-P and 5′-OH RNA termini, we synthesized a P. horikoshii rtcB gene and produced soluble enzyme in E. coli. […] The P. horikoshii ligase also required a 2′-OH on the terminal nucleotide of the 5′ RNA fragment.
RNA Ligation Assay. Ligation assays with single-stranded RNA as the substrate used two 10-nt oligonucleotides that were synthesized by Integrated DNA Technologies (15). […] The 3′ RNA fragment had hydroxyl groups on each end. The sequence of the 5′ fragment was FAM-5′-AAAUAACAAA-3′-P (SEQ ID NO:6) and the sequence of the 3′ RNA fragment was 5′-AAAUAACAAA-3′ (SEQ ID NO:6). Ligation reactions were performed in 10-μL solutions consisting of 50 mM Bis-Tris buffer, pH 7.0, containing NaCl (300 mM), […] (0.25 mM), GTP (100 μM), each RNA fragment (1 μM), and RtcB (10 μM). Reaction mixtures were incubated at 70° C. for 1 h prior to the addition of water (40 μL) and RNA-loading buffer (50 μL). Reaction mixtures were subjected to electrophoresis and visualized as previously described in the previous examples.
The ability of Archease to activate P. horikoshii RtcB was tested in reactions using ssRNA substrates. Ligation reactions included a 10-nt 5′ RNA fragment and a 10-nt 3′ RNA fragment. […] The 3′ RNA fragment had hydroxyl groups on each end. The sequence of the 5′ fragment was FAM-5′-AAAUAACAAA-3′-P (SEQ ID NO:6) and the sequence of the 3′ RNA fragment was 5′-AAAUAACAAA-3′ (SEQ ID NO:6). Ligation reactions were performed in 50-μL solutions consisting of 50 mM Tris-HCl buffer, pH 7.4, containing NaCl (300 mM), MnCl2 (0.25 mM), GTP (100 μM), RNA fragments (100 pmol of each), and P. horikoshii RtcB (5 μM).
Ligation reaction mixtures were set up as described above, and each was divided into two tubes. No Archease was added to one set of reaction mixtures (FIG. 10A), and Archease was added to a concentration of 0.25 μM to the other set (FIG. 10B). […] Archease had no effect on ligation reactions that used 2′-F RNA.
We tested the ability of Archease to enable RtcB to use cofactors other than GTP or dGTP. Ligation reaction mixtures with RtcB were set up as described above, and each was divided into two tubes. No Archease was added to one set of reaction mixtures (FIG. 11A), and Archease was added to a concentration of 0.25 μM to the other set (FIG. 11B). The various NTPs were included at a concentration of 100 μM.

[3] = target: E. coli RtcA (Escherichia coli, UniProt P46849); details: read-out: ATP KM; cited from earlier work
E. coli RtcA, sequence (P46849 whole entry): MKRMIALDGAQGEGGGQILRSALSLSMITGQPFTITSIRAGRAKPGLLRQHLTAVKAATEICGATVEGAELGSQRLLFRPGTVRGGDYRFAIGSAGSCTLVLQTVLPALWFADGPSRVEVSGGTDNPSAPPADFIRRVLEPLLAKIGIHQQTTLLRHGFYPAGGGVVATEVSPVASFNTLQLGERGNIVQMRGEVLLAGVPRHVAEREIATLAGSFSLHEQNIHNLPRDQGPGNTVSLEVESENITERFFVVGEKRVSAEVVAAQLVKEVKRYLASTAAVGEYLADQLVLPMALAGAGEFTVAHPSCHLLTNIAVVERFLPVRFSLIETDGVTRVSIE

[4] = target: human RtcA (Homo sapiens, UniProt O00442); details: read-out: ATP KM; cited from earlier work
human RtcA, sequence (O00442 whole entry): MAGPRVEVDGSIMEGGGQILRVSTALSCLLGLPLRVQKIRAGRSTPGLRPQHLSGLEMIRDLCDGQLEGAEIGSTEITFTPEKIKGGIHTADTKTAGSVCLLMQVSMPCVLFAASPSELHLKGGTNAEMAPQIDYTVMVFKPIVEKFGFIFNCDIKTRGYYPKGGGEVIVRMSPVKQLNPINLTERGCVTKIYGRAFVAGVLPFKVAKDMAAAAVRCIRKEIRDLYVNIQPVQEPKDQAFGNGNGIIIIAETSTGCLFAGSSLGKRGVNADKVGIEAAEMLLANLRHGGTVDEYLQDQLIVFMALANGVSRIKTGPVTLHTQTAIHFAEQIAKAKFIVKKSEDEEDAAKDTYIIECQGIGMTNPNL

[5] = test system: P. horikoshii RtcB; experiment: 14C-labeled GTP binding assay; parameters: species or system Pyrococcus horikoshii
Protocol: Structure of the RtcB-Histidine-GMP Covalent Intermediate. To determine the optimal reaction conditions that enable formation of the RtcB-GMP covalent intermediate, ^14C-labeled GTP binding studies were performed (7). […] Under these conditions, the maximal GMP:RtcB molar ratio was determined to be (0.76±0.02):1. No binding of GTP to RtcB was detected in the absence of Mn(II). Using these reaction conditions, we formed the RtcB-GMP intermediate and removed unbound Mn(II), GTP, and PPi by gel-filtration chromatography. The protein was concentrated to 200 μM, and crystals of this complex diffracted to a resolution of 2.4 Å.
^14C-labeled GTP Binding Assays. […] Absorbance readings at A260 and A280 were obtained for each fraction. The protein fractions have high A280 readings, whereas the fractions with free GTP have higher A260 readings. In fractions containing protein, the RtcB concentrations were calculated from the A280 reading using an extinction coefficient of 62,340 M^−1 cm^−1 (ExPASy). The concentration of [8-^14C]GTP in the protein fractions was determined by liquid scintillation counting. Each 0.5-mL fraction was mixed with 3.5 mL of Ultima Gold MV liquid scintillation cocktail (Perkin Elmer) in a 4-mL vial, and counts were read on a MicroBeta TriLux liquid scintillation counter (Perkin Elmer). […] Under these conditions, the GTP:RtcB molar ratio was determined to be (0.76±0.02):1. […]

[6] = target: T1, Pyrococcus horikoshii Archease

Row | Molecule | use as cofactor in ligation of 3′-P and 5′-OH RNA termini ([1]; in place of GTP, tRNA anticodon stem-loop mimic substrate, with Mn2+ (FIG. 1B, 1C)) | use as cofactor in RNA ligation with Archease [2] | Km [3] [µM] | Km [4] [µM] | Km ([1]; titration with GTP, tRNA mimic substrate (FIG. 1D)) [µM] | maximal GMP:RtcB (GTP:RtcB) molar ratio ([5]; RtcB 100 μM, GTP 1 mM, MnCl2 2 mM, 70° C. for 45 min) | binding of GTP to RtcB ([5]; in the absence of Mn(II)) | RNA ligation (urea-polyacrylamide gel of FAM-labeled ssRNA substrate and product) [6]
1 | Nc1ncnc2c1ncn2[C@@H]1O[C@H](COP(=O)(O)OP(=O)(O)OP(=O)(O)O)[C@@H](O)[C@H]1O [ATP, adenosine-5′-triphosphate] | unable to substitute for GTP | enables RtcB to use ATP | 20 | 6 | – | – | – | –
2 | Nc1nc2c(ncn2[C@@H]2O[C@H](COP(=O)(O)OP(=O)(O)OP(=O)(O)O)[C@@H](O)[C@H]2O)c(=O)[nH]1 [GTP, guanosine-5′-triphosphate] | – | selectively activated | – | – | < 16 | 0.76±0.02 | No binding | –
3 | Pyrococcus horikoshii 2',3'-cyclic phosphate RNA ligase (RtcB) (protein) MVVPLKRIDKIRWEIPKFDKRMRVPGRVYADEVLLEKMKNDRTLEQATNVAMLPGIYKYSIVMPDGHQGYGFPIGGVAAFDVKEGVISPGGIGYDINCGVRLIRTNLTEKEVRPRIKQLVDTLFKNVPSGVGSQGRIKLHWTQIDDVLVDGAKWAVDNGYGWERDLERLEEGGRMEGADPEAVSQRAKQRGAPQLGSLGSGNHFLEVQVVDKIFDPEVAKAYGLFEGQVVVMVHTGSRGLGHQVASDYLRIMERAIRKYRIPWPDRELVSVPFQSEEGQRYFSAMKAAANFAWANRQMITHWVRESFQEVFKQDPEGDLGMDIVYDVAHNIGKVEEHEVDGKRVKVIVHRKGATRAFPPGHEAVPRLYRDVGQPVLIPGSMGTASYILAGTEGAMKETFGSTCHGAGRVLSRKAATRQYRGDRIRQELLNRGIYVRAASMRVVAEEAPGAYKNVDNVVKVVSEAGIAKLVARMRPIGVAKG | – | – | – | – | – | – | – | the addition of Archease at concentrations that are lower than that of RtcB or RNA enhanced catalysis of RNA ligation
